Counter-ions that a name gives are not always drawn.
Columns and labels:
[1] = Solubility measurement in preparation solution (water solubility); type: physicochemical; conditions: hydrochloride; for dissolution amount: preparation solution (D-sorbitol, lactic acid, pH about 3.5), shaken at 22° C. for 30 minutes; for water solubility: pH3.5
Experimental: About 0.5 g of b- or c-type crystals were weighed out, suspended in a preparation solution, and shaken at 22° C. for 30 minutes (130 r/min). The mixture was filtered by a membrane filter (0.45 μm). To 1 ml of the filtrate, the preparation solution was added up to 200 mL. 10 μl was aliquoted and analyzed by liquid chromatography. The dissolution amount was obtained on the basis of a calibration curve previously prepared.
Note that the preparation solution used herein was prepared by dissolving 45 g of D-sorbitol in an appropriate amount of distilled water for injection, adding 900 mg of lactic acid, adjusting pH of the solution at about 3.5, and adding distilled water for injection up to 1000 mL.

[2] = Change of dissolution state over time (30 mg/mL in preparation solution); type: physicochemical; conditions: shaken for several minutes

SMILES | dissolution amount [1] | water solubility [1] | temperature needed to dissolve [2]
CCc1c2c(nc3ccc(OC(=O)N4CCC(N5CCCCC5)CC4)cc13)-c1cc3c(c(=O)n1C2)COC(=O)[C@]3(O)CC [No. 3, irinotecan hydrochloride] | ≥ 100 mg/mL | – | –
CCc1c2c(nc3ccc(OC(=O)N4CCC(N5CCCCC5)CC4)cc13)-c1cc3c(c(=O)n1C2)COC(=O)[C@]3(O)CC [c-type crystals, irinotecan hydrochloride] | – | ≥ 100 mg/mL | –
CCc1c2c(nc3ccc(OC(=O)N4CCC(N5CCCCC5)CC4)cc13)-c1cc3c(c(=O)n1C2)COC(=O)[C@]3(O)CC [b-type crystals, irinotecan hydrochloride] | 11.4 mg/mL | 11.4 mg/mL | about 70 °C

Source: patent US7488825B2 (Kabushiki Kaisha Yakult Honsha, priority 2003, dated 2009)
